In EPA's ToxRefDB 2:

Key:
rat [1] = conditions: Subchronic oral toxicity in rodents, sprague dawley, Gavage/Intubation, dose end: 90 day, group: systemic
rat [2] = conditions: Prenatal developmental toxicity study, sprague dawley, Oral, Gavage/Intubation, dose end: 15 GD
rabbit [3] = conditions: Prenatal developmental toxicity study, new zealand white, Oral, Gavage/Intubation, dose end: 19 GD, group: maternal
mouse = conditions: Carcinogenicity, cd1, Oral, Feed, dose end: 78 week, group: systemic
rat [4] = conditions: Prenatal developmental toxicity study, sprague dawley, Oral, Gavage/Intubation, dose end: 15 GD; remark: listed apart in the source
rat [5] = conditions: Combined chronic toxicity/carcinogenicity, sprague dawley, Oral, Feed, dose end: 104 week
rat [6] = conditions: Subchronic dermal toxicity, sprague dawley, Topical, dose end: 91 day
rat [7] = conditions: Neurotoxicity screening battery; sprague dawley; Oral; Feed; dose end: 13 week; group: cannot be grouped; cholinesterase / cholinesterase / cholinesterase / plasma cholinesterase (che) + systemic / in life observation / food consumption / food …
rat [8] = conditions: Subchronic inhalation toxicity, sprague dawley, Whole-Body, dose end: 13 week
rat [9] = conditions: Prenatal developmental toxicity study, sprague dawley, Oral, Gavage/Intubation, dose end: 15 GD; remark: listed apart in the source
rabbit [10] = conditions: Prenatal developmental toxicity study, new zealand white, Oral, Gavage/Intubation, dose end: 19 GD, group: maternal; remark: listed apart in the source
rabbit [11] = conditions: Prenatal developmental toxicity study, New Zealand White, Oral, Gavage/Intubation, dose end: 19 GD, group: maternal
rat [12] = conditions: Subchronic oral toxicity in rodents, sprague dawley, Gavage/Intubation, dose end: 90 day
[13] = group: developmental, developmental / developmental malformation / bone / unossified + systemic / in life observation / body weight / fetal weight
[14] = group: maternal, systemic / in life observation / body weight / body weight gain + systemic / in life observation / food consumption / food consumption + …
[15] = systemic / in life observation / clinical signs / defecation + systemic / in life observation / food consumption / food consumption + …
[16] = systemic / pathology microscopic / thyroid gland / vacuolization + systemic / pathology microscopic / thyroid gland / hypertrophy
[17] = systemic / pathology microscopic / thyroid gland / vacuolization + systemic / pathology microscopic / thyroid gland / hypertrophy + systemic…
[18] = group: developmental, developmental / developmental malformation / bone / incomplete ossification + developmental / developmental malformation / bone / wavy
[19] = group: maternal, systemic / in life observation / body weight / body weight gain
[20] = group: cholinesterase, cholinesterase / cholinesterase / cholinesterase / erythrocyte cholinesterase (che) + cholinesterase / cholinesterase / cholinesterase / …
[21] = group: cholinesterase, cholinesterase / cholinesterase / cholinesterase / plasma cholinesterase (che)
[22] = group: systemic, systemic / in life observation / body weight / body weight gain
[23] = group: systemic, systemic / in life observation / body weight / body weight gain + systemic / clinical chemistry / cholesterol / cholesterol + systemic / …
[24] = group: cholinesterase, cholinesterase / cholinesterase / cholinesterase / plasma cholinesterase (che) + cholinesterase / cholinesterase / cholinesterase / …
[25] = group: systemic, systemic / pathology microscopic / skin / hyperkeratosis + systemic / clinical chemistry / calcium / calcium + systemic / clinical chemistry…
[26] = group: systemic, systemic / pathology microscopic / skin / hyperkeratosis + systemic / clinical chemistry / glucose / glucose + systemic / in life …
[27] = group: cholinesterase, cholinesterase / cholinesterase / cholinesterase / brain cholinesterase (che)
[28] = group: cholinesterase, cholinesterase / cholinesterase / cholinesterase / brain cholinesterase (che) + cholinesterase / cholinesterase / cholinesterase / …
[29] = group: systemic, systemic / clinical chemistry / glucose / glucose + systemic / clinical chemistry / alanine aminotransferase (alt/sgpt) / alanine …
[30] = group: developmental, developmental / developmental landmark / [other] / [other]
[31] = group: maternal, systemic / in life observation / body weight / body weight gain + systemic / in life observation / clinical signs / salivation + systemic / …
[32] = reproductive / reproductive performance / resorptions / resorptions + systemic / in life observation / body weight / body weight gain + …
[33] = systemic / in life observation / body weight / body weight gain + systemic / in life observation / food consumption / food consumption + …
[34] = group: cholinesterase, cholinesterase / cholinesterase / cholinesterase / cholinesterase (che)
[35] = group: systemic, systemic / in life observation / clinical signs / salivation + systemic / pathology gross / liver / misshapen
[36] = group: systemic, systemic / in life observation / clinical signs / salivation + systemic / pathology gross / liver / misshapen + systemic / pathology …

Structure (SMILES): CCCCNC(=O)OCC#CI [3-Iodo-2-propynyl-N-butylcarbamate]
- NEL (rat [1]; systemic / in life observation / clinical signs / post-dosing rooting in bedding + systemic / organ weight / liver / relative to body weight…): 20 mg/kg/day
- LOAEL (rat [1]; systemic / organ weight / liver / relative to body weight): 50 mg/kg/day
- NOAEL (rat [1]; systemic / organ weight / liver / relative to body weight + systemic / in life observation / body weight / body weight gain + systemic / in …): 20 mg/kg/day
- LEL (rat [1]; systemic / organ weight / liver / relative to body weight + systemic / in life observation / clinical signs / post-dosing rooting in bedding…): 50 mg/kg/day
- LEL (rat [2]; [13]): 250 mg/kg/day
- LOAEL (rat [2]; [13]): 250 mg/kg/day
- NEL (rat [2]; [13]): 75 mg/kg/day
- NOAEL (rat [2]; [13]): 75 mg/kg/day
- LOAEL (rat [2]; group: maternal, systemic / in life observation / body weight / body weight gain + systemic / in life observation / food consumption / food consumption): 75 mg/kg/day
- LEL (rat [2]; [14]): 75 mg/kg/day
- NEL (rat [2]; [14]): 25 mg/kg/day
- NOAEL (rat [2]; [14]): 25 mg/kg/day
- LEL (rabbit [3]; [15]): 20 mg/kg/day
- NEL (rabbit [3]; [15]): 10 mg/kg/day
- NOAEL (rabbit [3]; [15]): 20 mg/kg/day
- LOAEL (rabbit [3]; systemic / in life observation / clinical signs / defecation + systemic / pathology gross / stomach / discolored + reproductive / …): 40 mg/kg/day
- LOAEL (mouse; [16]): 19.8 mg/kg/day
- NOAEL (mouse; [16]): < 19.8 mg/kg/day
- LEL (mouse; [17]): 19.8 mg/kg/day
- NEL (mouse; [17]): < 19.8 mg/kg/day
- LEL (rat [4]; [18]): 125 mg/kg/day
- LOAEL (rat [4]; [18]): 125 mg/kg/day
- NEL (rat [4]; [18]): 50 mg/kg/day
- NOAEL (rat [4]; [18]): 50 mg/kg/day
- LEL (rat [4]; [19]): 125 mg/kg/day
- LOAEL (rat [4]; [19]): 125 mg/kg/day
- NEL (rat [4]; [19]): 50 mg/kg/day
- NOAEL (rat [4]; [19]): 50 mg/kg/day
- LOAEL (rat [5]; [20]): > 80.1 mg/kg/day
- NOAEL (rat [5]; [20]): ≥ 80.1 mg/kg/day
- LEL (rat [5]; [21]): 20.1 mg/kg/day
- NEL (rat [5]; [21]): < 20.1 mg/kg/day
- LOAEL (rat [5]; [22]): 20.1 mg/kg/day
- NOAEL (rat [5]; [22]): < 20.1 mg/kg/day
- LEL (rat [5]; [23]): 20.1 mg/kg/day
- NEL (rat [5]; [23]): < 20.1 mg/kg/day
- NEL (rat [6]; [21]): 200 mg/kg/day
- LEL (rat [6]; [24]): 500 mg/kg/day
- LOAEL (rat [6]; [24]): > 500 mg/kg/day
- NOAEL (rat [6]; [24]): ≥ 500 mg/kg/day
- NEL (rat [6]; [25]): 50 mg/kg/day
- NOAEL (rat [6]; [25]): 50 mg/kg/day
- LEL (rat [6]; [26]): 200 mg/kg/day
- LOAEL (rat [6]; [26]): 200 mg/kg/day
- LEL (rat [7]): 50 mg/kg/day
- LOAEL (rat [7]): 50 mg/kg/day
- NEL (rat [7]): 10 mg/kg/day
- NOAEL (rat [7]): 10 mg/kg/day
- LEL (rat [8]; [27]): 0.11 ppm
- LOAEL (rat [8]; [27]): 0.11 ppm
- NEL (rat [8]; [28]): 0.0217 ppm
- NOAEL (rat [8]; [28]): 0.0217 ppm
- LEL (rat [8]; group: systemic, systemic / clinical chemistry / glucose / glucose): 0.11 ppm
- LOAEL (rat [8]; [29]): > 0.54 ppm
- NEL (rat [8]; [29]): 0.0217 ppm
- NOAEL (rat [8]; [29]): ≥ 0.54 ppm
- LEL (rat [9]; [30]): 250 mg/kg/day
- LOAEL (rat [9]; [30]): 250 mg/kg/day
- NEL (rat [9]; [30]): 75 mg/kg/day
- NOAEL (rat [9]; [30]): 75 mg/kg/day
- LEL (rat [9]; [31]): 75 mg/kg/day
- LOAEL (rat [9]; [31]): 75 mg/kg/day
- NEL (rat [9]; [31]): 25 mg/kg/day
- NOAEL (rat [9]; [31]): 25 mg/kg/day
- LEL (rabbit [10]; reproductive / reproductive performance / resorptions / resorptions): 20 mg/kg/day
- NEL (rabbit [10]; [32]): 2 mg/kg/day
- NOAEL (rabbit [10]; [32]): 20 mg/kg/day
- LOAEL (rabbit [10]; systemic / in life observation / body weight / body weight gain + systemic / in life observation / clinical signs / [other] + systemic / in …): 50 mg/kg/day
- LOAEL (rabbit [11]; systemic / in life observation / body weight / body weight gain + systemic / in life observation / food consumption / food consumption): 20 mg/kg/day
- LEL (rabbit [11]; [33]): 20 mg/kg/day
- NEL (rabbit [11]; [33]): 10 mg/kg/day
- NOAEL (rabbit [11]; [33]): 10 mg/kg/day
- LEL (rat [12]; [34]): 75 mg/kg/day
- LOAEL (rat [12]; [34]): > 200 mg/kg/day
- NEL (rat [12]; [34]): 25 mg/kg/day
- NOAEL (rat [12]; [34]): ≥ 200 mg/kg/day
- LOAEL (rat [12]; [35]): 25 mg/kg/day
- NOAEL (rat [12]; [35]): < 25 mg/kg/day
- LEL (rat [12]; [36]): 25 mg/kg/day
- NEL (rat [12]; [36]): < 25 mg/kg/day
